Key:
[1] = tested on: Monocotyledonous and dicotyledonous test plants; experiment: Herbicidal action before emergence of the plants (pre-emergence action); format: in vivo; conditions: evaluated after 3 weeks, nine-step scale; for pre-emergence action, Cyperus / pre-emergence action, Ipomoea / pre-emergence action, Setaria / pre-emergence action, Sinapis / pre-emergence action, Solanum / pre-emergence action, Stellaria: 2000 g/ha
Procedure, shortened: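 Sprayed onto soil immediately after sowing as WP suspension or EC emulsion at 2 kg or 250 g a.i./ha (500 l water/ha). Greenhouse growth for 3 weeks, then scored on a nine-step scale (1 = complete damage, 9 = no effect).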

[2] = tested on: Monocotyledonous and dicotyledonous test plants; experiment: Post-emergence herbicidal action; format: in vivo; conditions: evaluated after approximately 18 days; for Post-emergence action, Ipomoea / Post-emergence action, Lolium / Post-emergence action, Setaria / Post-emergence action, Sinapis / Post-emergence action, Solanum / Post-emergence action, Stellaria: 2000 g/ha, sprayed in 4- to 6-leaf stage, nine-step scale
Procedure, shortened: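 Greenhouse plants sprayed at the 4- to 6-leaf stage with test substance as wettable-powder suspension or emulsion-concentrate emulsion, 2 kg or 250 g a.i./ha in 500 l water/ha. Scored after about 18 days on a nine-step scale (1=complete damage, 9=no effect).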

With `Cc1c(C(=O)C2=C(Cl)C(C)(C)C(=O)C(C)(C)C2=O)ccc(C(F)(F)F)[n+]1[O-]` [Compound A1210-B1105, 5-Chloro-2,2,6,6-tetramethyl-4-(2-methyl-1-oxy-6-trifluoromethylpyridine-3-carbonyl)cyclohex-4-ene-1,3-dione] the “Pre-emergence action, Abutilon” value ([1]; Abutilon, 250 g/ha) was 1, the “Pre-emergence action, Amaranthus” value ([1]; Amaranthus, 250 g/ha) was 4 and the “Pre-emergence action, Chenop.” value ([1]; Chenop., 250 g/ha) was 1. The “Pre-emergence action, Digitaria” value ([1]; Digitaria, 250 g/ha) was 3, the “Pre-emergence action, Echino.” value ([1]; Echino., 250 g/ha) was 2 and the “Pre-emergence action, Panicum” value ([1]; Panicum, 250 g/ha) was 2. For the same compound, the “Post-emergence action: Abutilon (score, nine-step scale)” value ([2]; Abutilon, 250 g/ha, sprayed at 4- to 6-leaf stage) was 2, the “Post-emergence action: Chenop. (score, nine-step scale)” value ([2]; Chenop., 250 g/ha, sprayed at 4- to 6-leaf stage) was 1 and the “Post-emergence action: Digitaria (score, nine-step scale)” value ([2]; Digitaria, 250 g/ha, sprayed at 4- to 6-leaf stage) was 2. For the same compound, the “Post-emergence action: Echino. (score, nine-step scale)” value ([2]; Echino., 250 g/ha, sprayed at 4- to 6-leaf stage) was 3, the “Post-emergence action: Ipopur. (score, nine-step scale)” value ([2]; Ipopur., 250 g/ha, sprayed at 4- to 6-leaf stage) was 2 and the “Post-emergence action: Panicum (score, nine-step scale)” value ([2]; Panicum, 250 g/ha, sprayed at 4- to 6-leaf stage) was 1. For the same compound, the “Post-emergence action: Xanth. (score, nine-step scale)” value ([2]; Xanth., 250 g/ha, sprayed at 4- to 6-leaf stage) was 2.
For `C#CCC1CC(C)(C)C(=O)C(C(=O)c2ccc(C(F)(F)F)nc2C)=C1O` (stereo not shown) [Compound A2-B1082], the “pre-emergence action, Cyperus” value [1] was 2, the “pre-emergence action, Ipomoea” value [1] was 2 and the “pre-emergence action, Setaria” value [1] was 2. The “pre-emergence action, Sinapis” value [1] was 2, the “pre-emergence action, Solanum” value [1] was 1 and the “pre-emergence action, Stellaria” value [1] was 2. For the same compound, the “Post-emergence action, Ipomoea” value [2] was 1, the “Post-emergence action, Lolium” value [2] was 2 and the “Post-emergence action, Setaria” value [2] was 2. The “Post-emergence action, Sinapis” value [2] was 1, the “Post-emergence action, Solanum” value [2] was 1 and the “Post-emergence action, Stellaria” value [2] was 2.
`Cc1nc(C(F)(F)F)ccc1C(=O)C1=C(O)C(C)CC2(CC2)C1=O` (stereo not shown) [Compound A2-C2] was tested, and the “pre-emergence action, Cyperus” value [1] was 2, the “pre-emergence action, Ipomoea” value [1] was 3 and the “pre-emergence action, Setaria” value [1] was 1. The “pre-emergence action, Sinapis” value [1] was 1, the “pre-emergence action, Solanum” value [1] was 1 and the “pre-emergence action, Stellaria” value [1] was 1. For the same compound, the “Post-emergence action, Ipomoea” value [2] was 2, the “Post-emergence action, Lolium” value [2] was 1 and the “Post-emergence action, Setaria” value [2] was 1. For the same compound, the “Post-emergence action, Sinapis” value [2] was 1, the “Post-emergence action, Solanum” value [2] was 1 and the “Post-emergence action, Stellaria” value [2] was 1.
For `CCC1(C)CC(C)C(=O)C(C(=O)c2ccc(C(F)(F)F)nc2C)=C1O` (stereo not shown) [Compound A2-B69], the “pre-emergence action, Cyperus” value [1] was 1, the “pre-emergence action, Ipomoea” value [1] was 4 and the “pre-emergence action, Setaria” value [1] was 2. The “pre-emergence action, Sinapis” value [1] was 2, the “pre-emergence action, Solanum” value [1] was 1 and the “pre-emergence action, Stellaria” value [1] was 1. For the same compound, the “Post-emergence action, Ipomoea” value [2] was 1, the “Post-emergence action, Lolium” value [2] was 2 and the “Post-emergence action, Setaria” value [2] was 2. For the same compound, the “Post-emergence action, Sinapis” value [2] was 1, the “Post-emergence action, Solanum” value [2] was 2 and the “Post-emergence action, Stellaria” value [2] was 2.
With `Cc1nc(C(F)(F)F)ccc1C(=O)C1=C(O)CCC2(CCC2)C1=O` [Compound A2-C146] the “pre-emergence action, Cyperus” value [1] was 1, the “pre-emergence action, Ipomoea” value [1] was 2 and the “pre-emergence action, Setaria” value [1] was 2. For the same compound, the “pre-emergence action, Sinapis” value [1] was 2, the “pre-emergence action, Solanum” value [1] was 1 and the “pre-emergence action, Stellaria” value [1] was 2. For the same compound, the “Post-emergence action, Ipomoea” value [2] was 1, the “Post-emergence action, Lolium” value [2] was 2 and the “Post-emergence action, Setaria” value [2] was 2. The “Post-emergence action, Sinapis” value [2] was 1, the “Post-emergence action, Solanum” value [2] was 2 and the “Post-emergence action, Stellaria” value [2] was 2.
With `Cc1nc(C(F)(F)F)ccc1C(=O)C1=C(O)CC(C)CC1=O` (stereo not shown) [Compound A2-B133] the “pre-emergence action, Cyperus” value [1] was 1, the “pre-emergence action, Ipomoea” value [1] was 2 and the “pre-emergence action, Setaria” value [1] was 2. The “pre-emergence action, Sinapis” value [1] was 2, the “pre-emergence action, Solanum” value [1] was 1 and the “pre-emergence action, Stellaria” value [1] was 2. The “Post-emergence action, Ipomoea” value [2] was 1, the “Post-emergence action, Lolium” value [2] was 2 and the “Post-emergence action, Setaria” value [2] was 2. The “Post-emergence action, Sinapis” value [2] was 1, the “Post-emergence action, Solanum” value [2] was 2 and the “Post-emergence action, Stellaria” value [2] was 2.
For `Cc1nc(C(F)(F)F)ccc1C(=O)C1=C(O)C(C)(C)CC(C)C1=O` (stereo not shown) [Compound A2-B68], the “pre-emergence action, Cyperus” value [1] was 1, the “pre-emergence action, Ipomoea” value [1] was 2 and the “pre-emergence action, Setaria” value [1] was 1. For the same compound, the “pre-emergence action, Sinapis” value [1] was 2, the “pre-emergence action, Solanum” value [1] was 1 and the “pre-emergence action, Stellaria” value [1] was 2. For the same compound, the “Post-emergence action, Ipomoea” value [2] was 1, the “Post-emergence action, Lolium” value [2] was 2 and the “Post-emergence action, Setaria” value [2] was 2. For the same compound, the “Post-emergence action, Sinapis” value [2] was 1, the “Post-emergence action, Solanum” value [2] was 1 and the “Post-emergence action, Stellaria” value [2] was 2.
With `Cc1nc(C(F)(F)Cl)ccc1C(=O)C1=C(O)CCCC1=O` [Compound A94-B1] the “pre-emergence action, Cyperus” value [1] was 1, the “pre-emergence action, Ipomoea” value [1] was 2 and the “pre-emergence action, Setaria” value [1] was 2. For the same compound, the “pre-emergence action, Sinapis” value [1] was 1, the “pre-emergence action, Solanum” value [1] was 1 and the “pre-emergence action, Stellaria” value [1] was 2. The “Post-emergence action, Ipomoea” value [2] was 1, the “Post-emergence action, Lolium” value [2] was 2 and the “Post-emergence action, Setaria” value [2] was 2. For the same compound, the “Post-emergence action, Sinapis” value [2] was 1, the “Post-emergence action, Solanum” value [2] was 1 and the “Post-emergence action, Stellaria” value [2] was 1.
`Cc1cc(C(=O)C2=C(O)C(C)(C)CCC2=O)c(C)nc1C(F)(F)F` [Compound A184-B24] was tested, and the “pre-emergence action, Cyperus” value [1] was 1, the “pre-emergence action, Ipomoea” value [1] was 3 and the “pre-emergence action, Setaria” value [1] was 2. The “pre-emergence action, Sinapis” value [1] was 2, the “pre-emergence action, Solanum” value [1] was 1 and the “pre-emergence action, Stellaria” value [1] was 2. For the same compound, the “Post-emergence action, Ipomoea” value [2] was 1, the “Post-emergence action, Lolium” value [2] was 2 and the “Post-emergence action, Setaria” value [2] was 2. The “Post-emergence action, Sinapis” value [2] was 1, the “Post-emergence action, Solanum” value [2] was 2 and the “Post-emergence action, Stellaria” value [2] was 2.
In the case of `Cc1nc(C(F)(F)C(F)(F)F)ccc1C(=O)C1=C(O)CCCC1=O` [Compound A34-B1], the “pre-emergence action, Cyperus” value [1] is reported as 1, the “pre-emergence action, Ipomoea” value [1] is reported as 2 and the “pre-emergence action, Setaria” value [1] is reported as 2. For the same compound, the “pre-emergence action, Sinapis” value [1] was 2, the “pre-emergence action, Solanum” value [1] was 2 and the “pre-emergence action, Stellaria” value [1] was 3. The “Post-emergence action, Ipomoea” value [2] was 1, the “Post-emergence action, Lolium” value [2] was 2 and the “Post-emergence action, Setaria” value [2] was 2. The “Post-emergence action, Sinapis” value [2] was 1, the “Post-emergence action, Solanum” value [2] was 1 and the “Post-emergence action, Stellaria” value [2] was 2.
With `Cc1nc(C(F)(F)F)ccc1C(=O)C1=C(O)C(C)(C(C)C)CC(C)(C)C1=O` (stereo not shown) [Compound A2-B93] the “pre-emergence action, Cyperus” value [1] was 2, the “pre-emergence action, Ipomoea” value [1] was 4 and the “pre-emergence action, Setaria” value [1] was 2. The “pre-emergence action, Sinapis” value [1] was 2, the “pre-emergence action, Solanum” value [1] was 1 and the “pre-emergence action, Stellaria” value [1] was 2. For the same compound, the “Post-emergence action, Ipomoea” value [2] was 1, the “Post-emergence action, Lolium” value [2] was 2 and the “Post-emergence action, Setaria” value [2] was 2. For the same compound, the “Post-emergence action, Sinapis” value [2] was 1, the “Post-emergence action, Solanum” value [2] was 2 and the “Post-emergence action, Stellaria” value [2] was 2.
